From US20230143612A1 (Arbutus Biopharma Corporation, priority 2020, published 2023)

Biological target: PD-L1 His protein / PD-1 Fc protein (Homo sapiens, UniProt Q9NZQ7)
Assay: HTRF Assay (PD-1/PD-L1 interaction)
Assay type: binding
Details: PD-L1 His 6 nM, PD-1 Fc 6 nM
Summary of the method: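 Compounds tested from 20 μM down to 0.001 μM (3-fold) against 6 nM PD-L1 His and 6 nM PD-1 Fc, 15 min room temperature incubation. Detection after 1 h at room temperature with Tb cryptate anti-6HIS and XL665 anti-human IgG reagents (mixture at 0.35 nM and 6.7 nM), HTRF signal.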

Chain of PD-L1 His protein / PD-1 Fc protein (Q9NZQ7 19-238 limits assumed): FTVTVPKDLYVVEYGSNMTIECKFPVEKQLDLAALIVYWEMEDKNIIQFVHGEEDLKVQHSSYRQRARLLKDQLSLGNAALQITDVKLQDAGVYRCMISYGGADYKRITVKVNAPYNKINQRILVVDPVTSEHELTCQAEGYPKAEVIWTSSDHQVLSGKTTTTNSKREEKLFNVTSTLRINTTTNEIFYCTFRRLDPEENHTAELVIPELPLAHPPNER

Row | SMILES | IC50
1 | O=C1CC[C@@H](CNCc2cnc3cc(-c4cccc(-c5cccc(-c6ccc7c(n6)OCCN(CCO)C7)c5Cl)c4Cl)ccn3c2=O)N1 [Example 268, (S)-8-(2,2′-Dichloro-3′-(4-(2-hydroxyethyl)-2,3,4,5-tetrahydropyrido[3,2-f][1,4]oxazepin-8-yl)-[1,1′-biphenyl]-3-yl)-3-((((5-oxopyrrolidin-2-yl)methyl)amino)methyl)-4H-pyrido[1,2-a]pyrimidin-4-one] | 710000 pM
2 | COC(=O)CNCc1c(C)nc2cc(-c3cccc(-c4cccc(-c5ccc(CNC[C@@H]6CCC(=O)N6)c(OC)n5)c4Cl)c3Cl)ccn2c1=O [Example 269, (S)-Methyl 2-(((8-(2,2′-dichloro-3′-(6-methoxy-5-((((5-oxopyrrolidin-2-yl)methyl)amino)methyl)pyridin-2-yl)-[1,1′-biphenyl]-3-yl)-2-methyl-4-oxo-4H-pyrido[1,2-a]pyrimidin-3-yl)methyl)amino)acetate] | 1000 pM
3 | COc1nc(-c2cccc(-c3cccc(-c4ccn5c(=O)c(CNC[C@@H](O)CC(=O)O)cnc5c4)c3Cl)c2Cl)cc(F)c1CNC[C@@H]1CCC(=O)N1 [Example 270, (3S)-4-[[8-[2-Chloro-3-[2-chloro-3-[4-fluoro-6-methoxy-5-[[[(2S)-5-oxopyrrolidin-2-yl]methylamino]methyl]-2-pyridyl]phenyl]phenyl]-4-oxo-pyrido[1,2-a]pyrimidin-3-yl]methylamino]-3-hydroxy-butanoic acid] | 100 pM
4 | COC(=O)C[C@H](O)CNCc1cnc2cc(-c3cccc(-c4cccc(-c5cc(F)c(CNC[C@@H]6CCC(=O)N6)c(OC)n5)c4Cl)c3Cl)ccn2c1=O [Example 271, Methyl (3S)-4-[[8-[2-chloro-3-[2-chloro-3-[4-fluoro-6-methoxy-5-[[[(2S)-5-oxopyrrolidin-2-yl]methylamino]methyl]-2-pyridyl]phenyl]phenyl]-4-oxo-pyrido[1,2-a]pyrimidin-3-yl]methylamino]-3-hydroxy-butanoate] | 100 pM
5 | COc1nc(-c2cccc(-c3cccc(-c4ccn5c(=O)c(CNC[C@H](C)O)cnc5c4)c3Cl)c2Cl)cc(F)c1CNC[C@@H]1CCC(=O)N1 [Example 272, 8-[2-Chloro-3-[2-chloro-3-[4-fluoro-6-methoxy-5-[[[(2S)-5-oxopyrrolidin-2-yl]methylamino]methyl]-2-pyridyl]phenyl]phenyl]-3-[[[(2S)-2-hydroxypropyl]amino]methyl]pyrido[1,2-a]pyrimidin-4-one] | 200 pM
6 | COc1nc(-c2cccc(-c3cccc(-c4ccn5c(=O)c(CNCC(C)(C)CO)cnc5c4)c3Cl)c2Cl)ccc1CNC[C@@H]1CCC(=O)N1 [Example 273, (S)-8-(2,2′-dichloro-3′-(6-methoxy-5-((((5-oxopyrrolidin-2-yl)methyl)amino)methyl)pyridin-2-yl)-[1,1′-biphenyl]-3-yl)-3-(((3-hydroxy-2,2-dimethylpropyl)amino)methyl)-4H-pyrido[1,2-a]pyrimidin-4-one] | 4200 pM
7 | COc1nc(-c2cccc(-c3cccc(-c4ccn5c(=O)c(CNC[C@@H](O)CC(N)=O)cnc5c4)c3Cl)c2Cl)cc(F)c1CNC[C@@H]1CCC(=O)N1 [Example 275, (3S)-4-[[8-[2-Chloro-3-[2-chloro-3-[4-fluoro-6-methoxy-5-[[[(2S)-5-oxopyrrolidin-2-yl]methylamino]methyl]-2-pyridyl]phenyl]phenyl]-4-oxo-pyrido[1,2-a]pyrimidin-3-yl]methylamino]-3-hydroxy-butanamide] | 100 pM
8 | CNCCCN(C)Cc1ccc(-c2cccc(-c3cccc(-c4ccn5c(=O)c(CN(C)CCNC)cnc5c4)c3Cl)c2Cl)nc1OC [Example 276, 8-(2,2′-dichloro-3′-(6-methoxy-5-((methyl(3-(methylamino)propyl)amino)methyl)pyridin-2-yl)-[1,1′-biphenyl]-3-yl)-3-((methyl(2-(methylamino)ethyl)amino)methyl)-4H-pyrido[1,2-a]pyrimidin-4-one] | 90000 pM
